Activity calls are given as the source filed them. The rule behind the calls is not given here.
Key:
[1] = Antioxidant activity assessed as DPPH radical scavenging activity measured after 30 mins incubation in dark by UV-Visible spectrophotometric analysis; format: functional
[2] = Antioxidant activity assessed as ABTS radical cation scavenging activity by measuring trolox equivalent antioxidant capacity measured at 6 mins; format: functional
BV-2 = assay: Antineuroinflammatory activity in mouse BV2 cells assessed as inhibition of LPS-induced NO production at 10 to 30 uM after 24 hrs by Griess assay; format: functional, cell-based
[3] = Antioxidant activity assessed as trolox equivalent of AAPH-induced radical scavenging activity preincubated for 15 mins followed by AAPH addition measured every minute for 120 mins by ORAC-FL based fluorescein assay; format: functional
[4] = biological target: T1, Amine oxidase [flavin-containing] A (Homo sapiens, UniProt P21397); assay: Inhibition of human MAO-A using p-tyramine as substrate incubated for 15 mins followed by substrate addition measured for 20 mins by fluorescence assay
T1 sequence (P21397 whole entry): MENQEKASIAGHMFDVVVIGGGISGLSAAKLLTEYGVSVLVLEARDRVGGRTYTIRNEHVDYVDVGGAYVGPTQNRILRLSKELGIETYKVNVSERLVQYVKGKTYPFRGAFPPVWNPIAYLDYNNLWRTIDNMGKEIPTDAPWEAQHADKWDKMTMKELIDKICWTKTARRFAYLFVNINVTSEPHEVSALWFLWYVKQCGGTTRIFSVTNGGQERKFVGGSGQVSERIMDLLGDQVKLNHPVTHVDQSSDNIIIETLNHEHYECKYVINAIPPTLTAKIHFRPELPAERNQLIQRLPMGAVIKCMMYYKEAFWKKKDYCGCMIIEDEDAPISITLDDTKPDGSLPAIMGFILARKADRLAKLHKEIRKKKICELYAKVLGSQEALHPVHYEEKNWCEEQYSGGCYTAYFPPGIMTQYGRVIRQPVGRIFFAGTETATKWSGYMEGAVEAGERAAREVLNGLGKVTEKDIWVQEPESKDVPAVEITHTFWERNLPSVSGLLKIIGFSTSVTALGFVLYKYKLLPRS

Homo sapiens = species: Homo sapiens; assay: Selectivity index, ratio of IC50 for human serum BuChE to IC50 for human erythrocyte AChE
[5] = biological target: Cholinesterase (Equus caballus) (UniProt P81908); assay: Inhibition of equine serum BuChE at 100 uM using butyrylthiocholine iodide as substrate incubated for 5 mins followed by substrate addition measured after 180 secs by Ellman's method relative to control
Acetylcholinesterase [6] = biological target: Acetylcholinesterase (Electrophorus electricus, UniProt O42275); assay: Inhibition of electric eel AChE using acetylthiocholine chloride as substrate incubated for 5 mins followed by substrate addition measured after 180 secs by Ellman's method
[7] = biological target: T2, Amine oxidase [flavin-containing] B (Homo sapiens, UniProt P27338); assay: Inhibition of human MAO-B using p-tyramine as substrate incubated for 15 mins followed by substrate addition measured for 20 mins by fluorescence assay
T2 sequence (P27338 whole entry): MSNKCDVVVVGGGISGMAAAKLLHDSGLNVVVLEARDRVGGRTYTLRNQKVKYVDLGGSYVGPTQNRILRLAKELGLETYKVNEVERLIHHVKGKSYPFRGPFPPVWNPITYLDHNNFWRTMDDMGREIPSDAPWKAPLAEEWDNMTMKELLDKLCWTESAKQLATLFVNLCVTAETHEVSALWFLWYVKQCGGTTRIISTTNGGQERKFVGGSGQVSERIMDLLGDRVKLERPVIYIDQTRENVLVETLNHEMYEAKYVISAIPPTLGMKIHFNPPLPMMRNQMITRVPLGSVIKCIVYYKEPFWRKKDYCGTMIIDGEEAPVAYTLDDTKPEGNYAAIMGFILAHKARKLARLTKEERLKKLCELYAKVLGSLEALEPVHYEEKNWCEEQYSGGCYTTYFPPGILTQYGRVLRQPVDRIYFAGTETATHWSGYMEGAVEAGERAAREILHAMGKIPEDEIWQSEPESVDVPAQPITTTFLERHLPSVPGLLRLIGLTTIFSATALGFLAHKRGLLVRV

Acetylcholinesterase [8] = biological target: T3, Acetylcholinesterase (Homo sapiens, UniProt P22303); assay: Inhibition of human erythrocyte AChE using acetylthiocholine chloride as substrate incubated for 5 mins followed by substrate addition measured after 180 secs by Ellman's method
Cholinesterase [9] = biological target: T4, Cholinesterase (Homo sapiens, UniProt P06276); assay: Inhibition of human serum BuChE at 100 uM using butyrylthiocholine iodide as substrate incubated for 5 mins followed by substrate addition measured after 180 secs by Ellman's method relative to control
Cholinesterase [10] = biological target: T4, Cholinesterase; assay: Inhibition of human serum BuChE using butyrylthiocholine iodide as substrate incubated for 5 mins followed by substrate addition measured after 180 secs by Ellman's method
Acetylcholinesterase [11] = biological target: T3, Acetylcholinesterase; assay: Inhibition of human erythrocyte AChE at 100 uM using acetylthiocholine chloride as substrate incubated for 5 mins followed by substrate addition measured after 180 secs by Ellman's method relative to control
[12] = biological target: Acetylcholinesterase (Electrophorus electricus) (UniProt O42275); assay: Inhibition of electric eel AChE at 100 uM using acetylthiocholine chloride as substrate incubated for 5 mins followed by substrate addition measured after 180 secs by Ellman's method relative to control
[13] = Antioxidant activity assessed as DPPH radical scavenging activity at 100 uM measured after 30 mins incubation in dark by UV-Visible spectrophotometric analysis relative to control; format: functional

Cholinesterase (Equus caballus), sequence (P81908 whole entry): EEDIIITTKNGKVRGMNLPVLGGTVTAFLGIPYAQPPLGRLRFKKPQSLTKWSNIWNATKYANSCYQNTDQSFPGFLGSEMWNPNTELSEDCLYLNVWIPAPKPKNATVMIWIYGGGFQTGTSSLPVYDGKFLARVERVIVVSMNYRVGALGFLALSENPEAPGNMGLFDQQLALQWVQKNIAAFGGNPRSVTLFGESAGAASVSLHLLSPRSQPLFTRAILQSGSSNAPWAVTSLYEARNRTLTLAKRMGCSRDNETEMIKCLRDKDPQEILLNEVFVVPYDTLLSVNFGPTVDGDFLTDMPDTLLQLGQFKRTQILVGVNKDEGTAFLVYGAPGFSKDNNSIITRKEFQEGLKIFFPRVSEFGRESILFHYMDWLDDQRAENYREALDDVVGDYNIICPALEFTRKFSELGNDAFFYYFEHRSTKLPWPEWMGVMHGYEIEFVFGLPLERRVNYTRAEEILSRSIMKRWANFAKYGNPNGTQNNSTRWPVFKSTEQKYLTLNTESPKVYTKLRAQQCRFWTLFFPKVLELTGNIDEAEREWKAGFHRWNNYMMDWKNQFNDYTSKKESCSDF
T4 sequence (P06276 whole entry): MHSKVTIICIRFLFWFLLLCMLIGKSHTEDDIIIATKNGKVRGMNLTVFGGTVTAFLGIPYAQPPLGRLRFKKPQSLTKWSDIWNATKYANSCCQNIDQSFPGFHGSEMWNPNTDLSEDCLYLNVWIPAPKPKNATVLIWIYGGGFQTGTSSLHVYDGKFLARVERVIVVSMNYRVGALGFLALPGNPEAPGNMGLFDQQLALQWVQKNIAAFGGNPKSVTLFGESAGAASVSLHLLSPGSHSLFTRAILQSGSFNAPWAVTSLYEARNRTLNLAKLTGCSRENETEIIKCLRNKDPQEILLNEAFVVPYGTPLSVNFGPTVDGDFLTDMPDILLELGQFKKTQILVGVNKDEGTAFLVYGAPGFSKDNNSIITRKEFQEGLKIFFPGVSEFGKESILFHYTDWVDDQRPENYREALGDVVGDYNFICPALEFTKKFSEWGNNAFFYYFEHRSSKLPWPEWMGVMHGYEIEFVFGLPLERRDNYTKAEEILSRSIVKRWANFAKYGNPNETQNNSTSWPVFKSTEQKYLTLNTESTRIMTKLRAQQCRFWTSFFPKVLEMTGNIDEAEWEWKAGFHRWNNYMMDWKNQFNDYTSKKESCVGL
Acetylcholinesterase (Electrophorus electricus), sequence (O42275 24-633 limits assumed): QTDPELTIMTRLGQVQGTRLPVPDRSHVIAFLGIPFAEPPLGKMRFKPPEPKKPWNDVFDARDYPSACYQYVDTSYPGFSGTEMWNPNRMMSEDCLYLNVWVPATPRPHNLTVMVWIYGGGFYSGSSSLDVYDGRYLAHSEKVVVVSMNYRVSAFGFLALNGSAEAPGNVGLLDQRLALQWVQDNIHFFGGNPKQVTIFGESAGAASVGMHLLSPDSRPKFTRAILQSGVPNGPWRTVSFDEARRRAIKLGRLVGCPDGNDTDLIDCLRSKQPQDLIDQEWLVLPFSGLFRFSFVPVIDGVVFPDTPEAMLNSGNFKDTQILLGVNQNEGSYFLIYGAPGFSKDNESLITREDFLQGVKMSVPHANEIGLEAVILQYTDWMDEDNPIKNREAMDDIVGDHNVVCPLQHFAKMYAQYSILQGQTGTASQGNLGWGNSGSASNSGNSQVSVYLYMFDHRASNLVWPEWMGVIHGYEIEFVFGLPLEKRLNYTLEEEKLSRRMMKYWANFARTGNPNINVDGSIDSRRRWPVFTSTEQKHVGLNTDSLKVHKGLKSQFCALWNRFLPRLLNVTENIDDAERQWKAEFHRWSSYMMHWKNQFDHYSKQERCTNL
Acetylcholinesterase (Electrophorus electricus, UniProt O42275), sequence (O42275 whole entry): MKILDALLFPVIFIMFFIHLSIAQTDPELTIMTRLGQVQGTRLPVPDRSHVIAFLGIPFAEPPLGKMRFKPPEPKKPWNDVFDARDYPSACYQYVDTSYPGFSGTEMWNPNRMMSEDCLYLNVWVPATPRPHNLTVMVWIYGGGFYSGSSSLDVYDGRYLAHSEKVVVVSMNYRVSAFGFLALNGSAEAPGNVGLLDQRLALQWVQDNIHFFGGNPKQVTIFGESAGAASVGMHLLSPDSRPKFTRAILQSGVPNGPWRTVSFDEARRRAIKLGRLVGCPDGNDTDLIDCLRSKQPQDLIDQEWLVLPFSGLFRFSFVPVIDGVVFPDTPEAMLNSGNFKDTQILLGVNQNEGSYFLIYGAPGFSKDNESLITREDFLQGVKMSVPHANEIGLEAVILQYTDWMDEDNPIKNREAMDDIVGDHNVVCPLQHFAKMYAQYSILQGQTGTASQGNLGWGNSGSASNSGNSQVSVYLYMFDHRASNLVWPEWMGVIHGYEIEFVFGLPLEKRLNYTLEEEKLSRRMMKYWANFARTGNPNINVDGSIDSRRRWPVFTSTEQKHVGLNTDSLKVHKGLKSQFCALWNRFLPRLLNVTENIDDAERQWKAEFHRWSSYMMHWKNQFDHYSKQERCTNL
T3 sequence (P22303 whole entry): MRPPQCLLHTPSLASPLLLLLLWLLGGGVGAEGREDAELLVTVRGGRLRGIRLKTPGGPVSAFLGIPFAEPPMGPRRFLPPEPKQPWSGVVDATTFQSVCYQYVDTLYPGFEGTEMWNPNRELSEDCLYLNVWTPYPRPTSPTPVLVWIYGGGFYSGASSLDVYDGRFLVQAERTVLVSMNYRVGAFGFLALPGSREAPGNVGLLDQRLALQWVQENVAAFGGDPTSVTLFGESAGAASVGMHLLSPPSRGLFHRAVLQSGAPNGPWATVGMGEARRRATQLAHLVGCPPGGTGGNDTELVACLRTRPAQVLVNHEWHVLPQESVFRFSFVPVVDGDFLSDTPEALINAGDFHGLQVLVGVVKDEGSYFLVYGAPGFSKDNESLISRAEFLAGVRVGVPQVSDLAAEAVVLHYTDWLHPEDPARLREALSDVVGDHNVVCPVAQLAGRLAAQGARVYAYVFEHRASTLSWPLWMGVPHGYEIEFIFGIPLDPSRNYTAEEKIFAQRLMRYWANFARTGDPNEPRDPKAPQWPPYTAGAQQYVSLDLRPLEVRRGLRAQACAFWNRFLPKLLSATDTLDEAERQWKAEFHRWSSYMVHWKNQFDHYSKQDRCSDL

| SMILES | IC50 [1] | Activity (mmolequiv/mmol) [2] | inhibition (BV-2) | Activity (mmolequiv/mmol) [3] | IC50 [4] | Ratio IC50 (Homo sapiens) | inhibition [5] | IC50 (Acetylcholinesterase [6]) | IC50 [7] | IC50 (Acetylcholinesterase [8]) | inhibition (Cholinesterase [9]) | IC50 (Cholinesterase [10]) | inhibition (Acetylcholinesterase [11]) | inhibition [12] | Activity [13] |
| --- | --- | --- | --- | --- | --- | --- | --- | --- | --- | --- | --- | --- | --- | --- | --- |
| Oc1ccc(/C=C/c2cc(O)cc(O)c2)cc1 [RESVERATROL] | 75.1 µM | 0.68 | Active | 1.84 |  |  |  |  |  |  |  |  |  |  |  |
| CC(C)(C)c1cc(CCC(=O)NCCC2CCN(Cc3ccccc3)CC2)cc(C(C)(C)C)c1O | 54.5 µM | 0.69 |  | 1.33 | 94.1 µM | > 33 | 42.4% | 2.31 µM | 46.9 µM | 3.42 µM | 36.5% |  |  |  |  |
| CC(C)(C)c1cc(/C=C/C(=O)NCCC2CCN(Cc3ccc(F)cc3F)CC2)cc(C(C)(C)C)c1O | 62.4 µM | 0.91 |  | 1.54 | 70.6 µM |  | 31.2% | 0.56 µM | 12.5 µM | 1.78 µM |  | Not Active |  |  |  |
| CC(C)(C)c1cc(/C=C/C(=O)NCC2CCN(Cc3ccccc3)CC2)cc(C(C)(C)C)c1O | 75.6 µM | 0.86 |  | 1.31 | 48.4 µM |  | 16.6% |  | 11.7 µM |  | 21.7% |  | 28.1% | 29.1% |  |
| CC(C)(C)c1cc(C(=O)CNC2CCN(Cc3ccccc3)CC2)cc(C(C)(C)C)c1O |  | 0.36 |  | 0.35 | 104 µM |  | 27.2% |  | 83.4 µM |  | 26.1% |  | 43.4% | 45% | 16.3% |
| CC(C)(C)c1cc(/C=C/C(=O)NCCC2CCN(Cc3ccc(F)cc3)CC2)cc(C(C)(C)C)c1O | 57.5 µM | 0.88 |  | 1.51 | 59.6 µM |  | 40.2% | 0.32 µM | 11.1 µM | 0.98 µM |  | Not Active |  |  |  |
| CC(C)(C)c1cc(/C=C/C(=O)NC2CCN(Cc3ccccc3)CC2)cc(C(C)(C)C)c1O | 71.9 µM | 0.94 |  | 1.42 | 42.5 µM |  | 31.5% |  | 33.5 µM |  | 9.41% |  | 27.7% | 34.3% |  |
| CC(C)(C)c1cc(/C=C/C(=O)NCCC2CCN(Cc3ccc(Br)cc3)CC2)cc(C(C)(C)C)c1O | 85.6 µM | 0.77 |  | 1.59 | 73.2 µM |  | 38.9% | 1.32 µM | 13.2 µM | 3.81 µM |  | Not Active |  |  |  |
| Cc1cc(C(C)(C)C)c(O)c(C(C)(C)C)c1 [BUTYLATED HYDROXYTOLUENE] | 88.6 µM | 0.59 | Active | 1.57 |  |  |  |  |  |  |  |  |  |  |  |
| CC(C)(C)c1cc(/C=C/C(=O)NCCC2CCN(Cc3cccc([N+](=O)[O-])c3)CC2)cc(C(C)(C)C)c1O | 78.1 µM | 0.85 |  | 1.6 | 70.9 µM |  | 42.6% | 1.21 µM | 12.5 µM | 3.46 µM |  | Not Active |  |  |  |

Source: ChEMBL document CHEMBL4270597, “Donepezil-butylated hydroxytoluene (BHT) hybrids as Anti-Alzheimer's disease agents with cholinergic, antioxidant, and neuroprotective properties” (Eur J Med Chem, 2018)
